pKi: −log10 of the molar value.
How the values were obtained:
[1] = molecular target: T1, MMP-13 (Homo sapiens, UniProt P45452); test: In vitro MMP inhibition, Ki determination (fluorogenic substrate II); assay type: biochemical; conditions: value outside parentheses; read-out: MMP-13 Ki
T1 construct: made in house; host or cells: baculovirus / insect cells
Summary of the method: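 Ki determined with human recombinant MMP-13, baculovirus-expressed as proenzyme and activated with APMA. Fluorogenic MCA/Dpa substrate II at 4 μM (at or below Km) with low enzyme in Tris buffer pH 7.5 with CaCl2. Incubation was 1 h at room temperature, with fluorescence read at 330/420 nm.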

[2] = molecular target: T2, MMP-2 (Homo sapiens, UniProt P08253); test: as above; assay type: biochemical; conditions: value outside parentheses; read-out: MMP-2 Ki
T2 construct: made in house; host or cells: MMP-2-transfected p2AHT2 cells
T2 sequence (P08253 110-660): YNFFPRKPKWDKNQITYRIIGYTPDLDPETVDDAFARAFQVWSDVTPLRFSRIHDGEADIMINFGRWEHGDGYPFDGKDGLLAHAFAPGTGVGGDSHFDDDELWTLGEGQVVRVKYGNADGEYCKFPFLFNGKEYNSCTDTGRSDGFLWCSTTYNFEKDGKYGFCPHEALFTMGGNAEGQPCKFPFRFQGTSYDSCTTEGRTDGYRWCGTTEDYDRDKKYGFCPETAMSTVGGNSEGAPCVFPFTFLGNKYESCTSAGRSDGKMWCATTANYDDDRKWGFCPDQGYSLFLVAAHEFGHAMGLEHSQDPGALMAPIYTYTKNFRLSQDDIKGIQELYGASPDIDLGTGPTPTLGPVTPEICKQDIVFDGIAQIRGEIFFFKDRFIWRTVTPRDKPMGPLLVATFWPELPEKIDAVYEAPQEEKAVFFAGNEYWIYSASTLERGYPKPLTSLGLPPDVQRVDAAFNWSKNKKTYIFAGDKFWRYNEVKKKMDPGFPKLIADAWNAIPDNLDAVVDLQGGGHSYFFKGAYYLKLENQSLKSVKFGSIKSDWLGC

pKi [1] | pKi [2] | Compound
9.42 | 8.89 | O=C(NO)C1(S(=O)(=O)N2CCC(c3ccc(CCCC(F)(F)F)cc3)CC2)CCOCC1 [Example 353]
9.52 | 8.96 | O=C(NO)C1(S(=O)(=O)N2CCC(c3ccc(CCCC(F)(F)F)cn3)CC2)CCOCC1 [Example 338]
9.30 | 9.01 | O=C(NO)C1(S(=O)(=O)N2CCN(c3ccc(-c4ccc(OC(F)(F)F)cc4)cc3)CC2)CCOCC1 [Example 327]
9.11 | 9.14 | O=C(NO)C1(S(=O)(=O)N2CCN(c3ccc(-c4ccc(F)cc4F)cn3)CC2)CCOCC1 [Example 316]
8.52 | 8.34 | Cc1ccccc1-c1cnc(N2CCN(S(=O)(=O)C3(C(=O)NO)CCOCC3)CC2)s1 [Example 348]
9.19 | 9.30 | CCCCc1ccc(C2CCN(S(=O)(=O)C3(C(=O)NO)CCOCC3)CC2)nc1 [Example 323]
9.36 | 9.58 | O=C(NO)C1(S(=O)(=O)N2CCN(c3ncc(-c4ccc(F)cc4F)s3)CC2)CCOCC1 [Example 359]
9.15 | 9.37 | O=C(NO)C1(S(=O)(=O)N2CCC(c3ccc(OC(F)(F)C(F)F)cc3)CC2)CCOCC1 [Example 337]
8.47 | 8.21 | O=C(NO)C1(S(=O)(=O)N2CCC(COCc3ccccc3)CC2)CCOCC1 [Example 373]
9.19 | 8.86 | CCCCCc1ccc(-c2cnc(N3CCN(S(=O)(=O)C4(C(=O)NO)CCOCC4)CC3)s2)cc1 [Example 380]
7.29 | 7.42 | O=C(NO)C1(S(=O)(=O)N2CCN(c3cccc(OCCCC(F)(F)F)c3)CC2)CCOCC1 [Example 355]
9.04 | 8.93 | O=C(NO)C1(S(=O)(=O)N2CCC(c3ccc(OCC(F)(F)C(F)(F)F)cc3)CC2)CCOCC1 [Example 330]
8.64 | 8.31 | O=C(NO)C1(S(=O)(=O)N2CCN(c3ccc(CCCC(F)(F)F)cc3F)CC2)CCOCC1 [Example 386]
8.34 | 7.48 | O=C(NO)C1(S(=O)(=O)N2CCN(c3ccc(-c4cccc(OC(F)(F)F)c4)cn3)CC2)CCOCC1 [Example 319]
6.38 | 5.74 | O=C(NO)C1(S(=O)(=O)N2CCC(N3CCN(c4ccc(Cl)cc4)CC3)CC2)CCOCC1 [Example 315]
7.82 | 7.95 | CCCCc1ccc(C2CCN(S(=O)(=O)C3(C(=O)NO)CCNCC3)CC2)nc1 [Example 388]
8.45 | 8.91 | COC(=O)c1ccc(N2CCN(S(=O)(=O)C3(C(=O)NO)CCOCC3)CC2)cc1 [Example 324]
9.05 | 8.14 | O=C(NO)C1(S(=O)(=O)N2CCC(c3ccc(-c4ccc(C(F)(F)F)cc4)cn3)CC2)CCOCC1 [Example 395]
9.74 | 9.58 | CC(C)c1ccc(-c2cnc(N3CCN(S(=O)(=O)C4(C(=O)NO)CCOCC4)CC3)s2)cc1 [Example 366]
9.97 | 9.73 | O=C(NO)C1(S(=O)(=O)N2CCN(c3ncc(-c4ccc(OC(F)(F)F)cc4)s3)CC2)CCOCC1 [Example 364]
8.17 | 7.91 | O=C(NO)C1(S(=O)(=O)N2CCC(c3ccc(-c4cccnc4)cn3)CC2)CCOCC1 [Example 390]
6.78 | 7.05 | CCCCOc1cccc(N2CCN(S(=O)(=O)C3(C(=O)NO)CCOCC3)CC2)c1 [Example 354]

Compound | pKi [1] | pKi [2]
O=C(NO)C1(S(=O)(=O)N2CCC(COCC(F)(F)C(F)(F)C(F)(F)F)CC2)CCOCC1 [Example 377] | 7.06 | 7.43
